Paper PMC8662641, “Site-Specific Labeling of Endogenous Proteins Using CoLDR Chemistry” (Journal of the American Chemical Society, 2021)

What was measured:
BTK-1h = target: T1, BTK-1h (Homo sapiens, UniProt Q06187); assay: High-throughput screening with 1h-labeled BTK; type: binding; details: Dataset S2A; 200 μM compound, BTK-1h, 32 °C, 10 min
T1 construct: The BTK kinase domain was diluted to 2 μM in the buffer, and 2 μM 1h was added; made in house
Method: The collection was composed of BTK binding compounds obtained in our previous luminescence screen[37] (Data set S2). […] The resulting BTK-1h (50 μL) was added to the inhibitors.

BTK = BTK (Homo sapiens, UniProt Q06187); set-up: BTK kinase domain was expressed and purified as previously reported; made in house; method as in Reddi et al., J. Am. Chem. Soc. 2021, 143 (13), 4979–4992; details: ref Reddi et al., J. Am. Chem. Soc. 2021, 143 (13), 4979–4992; cited from earlier work
Sequence of BTK (Q06187 402-655 limits assumed): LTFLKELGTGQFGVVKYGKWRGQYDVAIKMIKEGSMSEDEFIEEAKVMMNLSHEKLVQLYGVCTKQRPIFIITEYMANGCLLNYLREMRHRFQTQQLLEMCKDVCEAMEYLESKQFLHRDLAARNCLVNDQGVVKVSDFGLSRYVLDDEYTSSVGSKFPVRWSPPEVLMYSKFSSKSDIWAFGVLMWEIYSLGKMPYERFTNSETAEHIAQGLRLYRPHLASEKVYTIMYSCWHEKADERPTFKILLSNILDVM

T1 sequence (Q06187 402-655): as the sequence (Q06187 402-655 limits assumed) above

Row | SMILES | FI (650)/FI (620) (BTK-1h) | FI (BTK-1h)/FI (BTK-1h+Inhibitor) at 620 nm (BTK-1h) | BTK Inhibition reported in luminescence assay* (BTK)
1 | CN1CCN(Cc2ccc(NC(=O)Nc3ccc(Oc4cc(NC(=O)C5CC5)ncn4)cc3)cc2C(F)(F)F)CC1 [PCM-0215388-001] | 1.014 | 1.145 | 79.5
2 | Cc1cc(C(=O)Nc2nc3cccc(Cl)c3n2[C@@H]2CCCCN(C(=O)/C=C/CN(C)C)C2)ccn1 [PCM-0215804-001] | 1.045 | 1.069 | 73.8
3 | CO[C@@H](C(=O)N1Cc2[nH]nc(NC(=O)c3ccc(N4CCN(C)CC4)cc3)c2C1)c1ccccc1 [PCM-0094888-003] | 1.661 | 1.3808 | 85.5
4 | O=c1cc(-c2ccc(O)c(O)c2)oc2cc(O)cc(O)c12 [PCM-0086559-001] | 2.125 | 1.0702 | 84.8
5 | OC1CCC(Oc2cccc3cnc(Nc4ccc5nc[nH]c5c4)nc23)CC1 (stereo not drawn) [PCM-0215798-001] | 1.285 | 1.0276 | 66.2
6 | O=C(O)c1ccc(C=C2SC(=S)N(c3cccc(C(F)(F)F)c3)C2=O)cc1 [PCM-0095759-002] | 1.083 | 1.262 | 54.1
7 | Oc1ccc(Nc2nc(-c3ccc(Cl)cc3)cs2)cc1 [PCM-0095692-002] | 1.023 | 1.009 | 84.8
8 | Cc1cc(N=Nc2ccc(S(=O)(=O)Nc3ccccn3)cc2)c(N)cc1O [PCM-0215414-001] | 1.18 | 1.008 | 76.4
9 | COc1ccc(CC(=O)Nc2nc3c(s2)CCc2ccccc2-3)cc1OC [PCM-0215753-001] | 0.9809 | 1.022 | 55.9
10 | Cc1cnc(C(=O)N[C@H]2CCCCC/C=C\[C@@H]3C[C@@]3(C(=O)NS(=O)(=O)C3CC3)NC(=O)[C@@H]3C[C@@H](Oc4nc5ccccc5c5ccccc45)CN3C2=O)cn1 [PCM-0216057-001] | 0.9612 | 1.053 | 53.3
11 | O=C(O)CSc1cc(NS(=O)(=O)c2ccc(Br)cc2)c2ccccc2c1O [PCM-0215378-001] | 1.912 | 0.9002 | 51.7
12 | O=C(c1ccccc1O)c1[nH]c(Cl)c(Cl)c1-n1c(C(=O)c2ccccc2O)cc(Cl)c1Cl [PCM-0215850-001] | 1.151 | 1.016 | 117.4
13 | COc1cccc2c1C(=O)c1c(O)c3c(c(O)c1C2=O)C[C@@](O)(C(=O)CO)C[C@@H]3O[C@H]1C[C@H](N)[C@H](O[C@@H]2CCCCO2)[C@H](C)O1 [PCM-0214749-001] | 0.7711 | 1.012 | 53.7
14 | C1=C/COCc2cc(ccc2OCCN2CCCC2)Nc2nccc(n2)-c2cccc(c2)COC/1 [PCM-0215268-001] | 1.364 | 1.2233 | 71.7
15 | Cc1nc(N)sc1-c1ccnc(Nc2ccc(N3CCOCC3)cc2)n1 [PCM-0095025-002] | 1.274 | 1.071 | 57.2
16 | COc1cc2c(Nc3ccc(NC(=O)c4ccccc4)cc3)ncnc2cc1OCCCN1CCOCC1 [PCM-0094881-002] | 1.089 | 1.079 | 77.9
17 | Cc1cc(Nc2nc(N[C@@H](C)c3ccc(F)cc3)c(C#N)cc2F)n[nH]1 [PCM-0095250-002] | 1.215 | 1.03 | 99.3
